Source: patent publication US20160120858A1 (ACADEMIA SINICA, priority 2014, published 2016)
Entries after “also recorded” stand apart in the source; their conditions may differ.

How the values were obtained:
[1] = test system: NMDAR; test: NMDA-fEPSP extracellular recordings, hippocampal slices; assay type: cell-based, mouse; settings: for Effect on clioquinol-dependent increase in NMDAR activity (NMDA-fEPSPs): applied to hippocampal slices before clioquinol treatment
Description: (§1) For electrophysiological experiments, sagittal hippocampal slices (400 uM thick for extracellular, 300 uM thick for intracellular recordings) of Shank2^−/− mice (or ZnT3^−/− mice) and their wild-type littermates were prepared using a vibratome (Leica VT1200) in ice-cold dissection buffer containing (in mM) 212 sucrose, 25 NaHCO3, 5 KCl, 1.25 NaH2PO4, 0.5 CaCl2, 3.5 MgSO4, 10 D-glucose, 1.25 L-ascorbic acid, and 2 Na-pyruvate bubbled with 95% 02/5% CO2. CA3 was removed to prevent epileptiform activity. Slices were restored for 1 hour in 32° C. in a normal artificial CSF (ACSF) (In units of mM: 124 NaCl, 2.5 kCl, 1 NaH2PO4, 25 NaHCO3, 10 glucose, 2 CaC12, 2 Mg504 oxidized by 95% 02/5% CO2) For the recording, a single slice was moved to and maintained in submerged-type chamber at 28° C., continuously perfused with ACSF (2 mL/minute) saturated with 95% 02/5% CO2. Stimulation and recording pipettes were pulled from borosilicate glass capillaries (Harvard Apparatus) using a micropipette electrode puller (Narishege).
For extracellular recordings, mouse hippocampal slices at the age of postnatal day 21 to 35 were used. Field excitatory postsynaptic potentials (fEPSPs) were recorded in the stratum radiatum of the hippocampal CA1 region using pipettes filled with ACSF (1 MΩ). fEPSP was amplified (Multiclamp 700B, Molecular Devices), and digitized (Digidata 1440A, Molecular
Devices) for measurements. The Schaffer collateral pathway was stimulated every 20 seconds with pipettes filled with ACSF (0.3 to 0.5 MΩ). The stimulation intensity was adjusted to yield a half-maximal response, and three successive responses were averaged and expressed relative to the normalized baseline. To induce LTP, high frequency stimulation (100 Hz, 1 s) was applied after a stable baseline was acquired. […] To isolate NMDAR-mediated fEPSPs, ACSF containing 2 mM calcium, 0.1 mM magnesium, and 6,7-dinitroquinoxaline-2,3-dione (10 uM, DNQX, Tocris), which inhibits AMPAR-mediated EPSPs, were used.

[2] = test system: NMDAR; test: Simultaneous NMDA- and AMPA-eEPSCs at −40 mV, patch-clamp, hippocampal slices; assay type: cell-based, mouse; settings: for Effect on clioquinol-dependent increase in NMDA/AMPA ratio at −40 mV: WT and KO
Description: as §1
Whole-cell patch-clamp recordings of hippocampal CA1 pyramidal neurons were also made using a MultiClamp 700B amplifier (Molecular Devices) and Digidata 1440A (Molecular Devices). During whole-cell patch-clamp recordings, series resistance was monitored each sweep by measuring the peak amplitude of the capacitance currents in response to short hyperpolarizing step pulse (5 mV, 40 ms); only cells with a change in <25% were included in the analysis. For NMDA (N-Methyl-D-aspartate)/AMPA (alpha-amino-3-hydroxy-5-methylisoxazole-4-propionic acid) ratio experiments, mouse hippocampal slices at the age of postnatal day 17 to 25 were used. The recording pipettes (2.5 to 3.5 MΩ) were filled with an internal solution containing the following (in mM): 100 CsMeSO4, 10 TEA-Cl, 8 NaCl, 10 HEPES, 5 QX-314-C1, 2 Mg-ATP, 0.3 Na-GTP, 10 EGTA, with pH 7.25, 295 mOsm). CA1 pyramidal neurons were voltage-clamped at −70 mV, and EPSPs were evoked at every 15 sec. AMPAR-mediatedEPSCs were recorded at −70 mV, and 30 consecutive responses were recorded after stable baseline. After recording AMPAR-mediated EPSPs, holding potential was changed to +40 mV to record NMDA receptor-mediated EPSPs. NMDA component was measured at 60 ms after the stimulation. The NMDA/AMPA ratio was determined by dividing the mean value of 30 NMDA components of EPSPs by the mean value of 30 AMPAR-mediated EPSC peak amplitudes. […] For measuring AMPAR-mediated and NMDAR-mediated EPSCs together upon CQ treatment, pyramidal neurons were voltage-clamped at −40 mV, and EPSCs were evoked at every 15 sec. AMPAR-mediated EPSC was determined as a peak amplitude of EPSC, and NMDAR-mediated EPSC as a component at 60 ms after stimulation. NMDA/AMPA ratio at −40 mV was calculated by using both values, and monitored during the experimental process. […] Picrotoxin (100 uM) was always added to ACSF to block GABAA receptor-mediated currents.

[3] = test system: Tbr1^+/− mice; settings: reported by Huang et al. 2014; cited from earlier work

With CC(C)(C)n1nc(-c2ccc(Cl)cc2)c2c(N)ncnc21 [PP2] as the molecule, how does the “Effect on clioquinol-dependent increase in NMDAR activity (NMDA-fEPSPs)” value [1] read?
The value was “removed clioquinol activation of NMDAR”.

Which “Effect on clioquinol-dependent increase in NMDAR activity (NMDA-fEPSPs)” value [1] does the source give for O=C(NN=C1CCCCC1)C(=O)NN=C1CCCCC1 [cuprizone] here?
The value was “did not inhibit the clioquinol-induced increase in NMDAR activity”.

Which “NMDA-eEPSCs at −40 mV” value ([2]; D-AP5 50 uM, 10 minutes, after CQ) does the source give for NC(CCCP(=O)(O)O)C(=O)O (stereo not drawn) [AP5] here?
The value was “significantly reduced”.

What does the source list for “Src (40-58): Src-inhibitory peptide with a sequence corresponding to Src amino acid residues 40-58 (KPASADGHRGPSAAFAPAA; UniProt P12931 40-58, looked up, fragment)”?
Effect on clioquinol-dependent increase in NMDAR activity (NMDA-eEPSCs) ([2]; peptide in the patch pipette, 0.03 mg/mL, Shank2^−/− and wild-type synapses): prevented clioquinol from increasing NMDAR activity; Effect on clioquinol-dependent increase in NMDA/AMPA ratio at −40 mV ([2]; peptide in the patch pipette, 0.03 mg/mL): blocks CQ-dependent NMDAR activation; Effect on clioquinol-dependent increase in NMDA/AMPA ratio at −40 mV ([2]; peptide in the patch pipette, 0.03 mg/mL, listed as Src-inhibitory peptide): blocked; AMPAR function (AMPA-eEPSCs) ([2]; peptide in the patch pipette, wild-type and Shank2^−/− synapses): unaffected

With O=C([O-])CN(CCN(CC(=O)[O-])CC(=O)[O-])CC(=O)[O-].[Ca+2].[Na+].[Na+] [Ca-EDTA] as the molecule, how does the “NMDAR function (NMDA-fEPSPs), substance alone” value ([1]; Ca-EDTA 2 mM, during and after the treatment, WT and KO) read?
Its value is “did not affect NMDA-fEPSP; also recorded: has no effect on NMDAR function”.

What about the “Effect on clioquinol-dependent increase in NMDAR activity (NMDA-fEPSPs)” value [1] of the same molecule?
Its value is “eliminated the clioquinol-dependent increase in NMDAR activity”.

For N[C@@H]1CONC1=O [D-cycloserine], which “Reduction in social interaction” value [3] is on record?
Its value is “normalized”.

Which “Effect on clioquinol-dependent increase in NMDAR activity (NMDA-fEPSPs)” value [1] does the source give for CN(C)S(=O)(=O)c1ccc2c(c1)/C(=C/c1cc3c([nH]1)CCCC3)C(=O)N2 [SU6656] here?
Its value is “removed clioquinol activation of NMDAR”.

With Nc1ncnc2c1cnn2-c1ccccc1 [PP3] as the molecule, how does the “Effect on clioquinol-dependent increase in NMDAR activity (NMDA-fEPSPs)” value [1] read?
The value was “failed to block the NMDAR activation”.
